Measured values published in patent US8399452B2, “Dibenzo[b,f][1,4]oxazepin-11-yl-N-hydroxybenzamides as HDAC inhibitors” (Methylgene Inc., priority 2006, dated 2013).

Biological target: histone deacetylase (HDAC Enzyme)
Assay: Inhibition of Histone Deacetylase Enzymatic Activity (Boc-Lys(Ac)-AMC, Fluor-de-Lys developer)
Assay type: biochemical
Conditions: Table 10; read-out: HDAC Inhibition (IC50 μM) HDAC Enzyme
Description: The following protocol is used to assay the compounds of the invention.
The mixture is pre-incubated for 5 minutes at room temperature. The reaction is started by bringing the temperature to 37° C. and adding 16 μl substrate. Total reaction volume is 50 μl.
In the Tables 8, 9 and 10, A≦[…]<B≦0.1 μM; 0.1 μM<C≦1 μM; and 1 μM<D≦10 μM.

SMILES	IC50 [µM]
O=C(/C=C/c1ccc(CN2C(=O)c3cccnc3N(C3CC3)c3ccccc32)cc1)NO [(E)-3-(4-((11-cyclopropyl-5-oxo-5H-benzo[b]pyrido[2,3-e][1,4]diazepin-6(11H)-yl)methyl)phenyl)-N-hydroxyacrylamide]	< 0.05
O=C(/C=C/c1ccc(CN2c3ccccc3C=Cc3ccccc32)cc1)NO [(E)-3-(4-(((Z)-5H-dibenzo[b,f]azepin-5-yl)methyl)phenyl)-N-hydroxyacrylamide]	0.05 to 0.1
O=C(/C=C/c1ccc2c(c1)C=Cc1ccccc1N2CC1CC1)NO [(E)-3-((Z)-5-(cyclopropylmethyl)-5H-dibenzo[b,f]azepin-2-yl)-N-hydroxyacrylamide]	0.1 to 1
CN1C(=O)CN=C(c2ccccc2)c2ccc(/C=C/C(=O)NO)cc21 [(E)-N-hydroxy-3-((Z)-1-methyl-2-oxo-5-phenyl-2,3-dihydro-1H-benzo[e][1,4]diazepin-8-yl)acrylamide]	0.1 to 1
O=C(/C=C/c1ccc2c(c1)NC(=O)CN=C2c1ccccc1)NO [(E)-N-hydroxy-3-((Z)-2-oxo-5-phenyl-2,3-dihydro-1H-benzo[e][1,4]diazepin-8-yl)acrylamide]	0.05 to 0.1
O=C(NO)c1cnc(N2CCC[C@H]2c2nc3ccccc3[nH]2)nc1 [(S)-2-(2-(1H-benzo[d]imidazol-2-yl)pyrrolidin-1-yl)-N-hydroxypyrimidine-5-carboxamide]	0.1 to 1
O=C(Cc1ccc(CN2c3ccccc3C=Cc3ccccc32)cc1)NO [(Z)-2-(4-((5H-dibenzo[b,f]azepin-5-yl)methyl)phenyl)-N-hydroxyacetamide]	0.1 to 1
O=C(CN1c2ccccc2C=Cc2ccccc21)NO [(Z)-2-(5H-dibenzo[b,f]azepin-5-yl)-N-hydroxyacetamide]	1 to 10
O=C(NO)c1cccc(CN2c3ccccc3C=Cc3ccccc32)c1 [(Z)-3-((5H-dibenzo[b,f]azepin-5-yl)methyl)-N-hydroxybenzamide]	0.1 to 1
O=C1CN=C(c2ccc(C(=O)NO)cc2)c2cc(Br)sc2N1 [(Z)-4-(7-bromo-2-oxo-2,3-dihydro-1H-thieno[2,3-e][1,4]diazepin-5-yl)-N-hydroxybenzamide]	0.1 to 1

Continued, values first:

IC50 [µM]	SMILES
1 to 10	O=C(CCCN1c2ccccc2C=Cc2ccccc21)NO [(Z)-4-(5H-dibenzo[b,f]azepin-5-yl)-N-hydroxybutanamide]
< 0.05	O=C(NO)c1ccc(CN2c3ccccc3C=Cc3ccccc32)cc1 [(Z)-4-((5H-dibenzo[b,f]azepin-5-yl)methyl)-N-hydroxybenzamide]

Same assay, conditions: read-out: HDAC Inhibtion (IC50 μM) HDAC Enzyme

SMILES	IC50 [µM]
O=C(NO)c1ccc(CCNC2=Nc3ccccc3Oc3ccccc32)cc1 [(E)-4-(2-(dibenzo[b,f][1,4]oxazepin-11-ylamino)ethyl)-N-hydroxybenzamide]	0.1 to 1
O=C(NO)c1ccc(CNC2=Nc3ccccc3N(C3CC3)c3ccccc32)cc1 [(E)-4-((5-cyclopropyl-5H-dibenzo[b,e][1,4]diazepin-11-ylamino)methyl)-N-hydroxybenzamide]	0.1 to 1
O=C(NO)c1ccc(CNC2=Nc3ccccc3Oc3ccccc32)cc1 [(E)-4-((dibenzo[b,f][1,4]oxazepin-11-ylamino)methyl)-N-hydroxybenzamide]	< 0.05
O=C(NO)c1ccc(C2=Nc3ccccc3Oc3ccccc32)c(F)c1 [(E)-4-(dibenzo[b,f][1,4]oxazepin-11-yl)-3-fluoro-N-hydroxybenzamide]	1 to 10
O=C(NO)c1ccc(C2=Nc3ccccc3Oc3ccccc32)o1 [(E)-5-(dibenzo[b,f][1,4]oxazepin-11-yl)-N-hydroxyfuran-2-carboxamide]	1 to 10
O=C(NO)c1ccc(C2=Nc3ccccc3Oc3ccccc32)s1 [(E)-5-(dibenzo[b,f][1,4]oxazepin-11-yl)-N-hydroxythiophene-2-carboxamide]	< 0.05
O=C(NO)c1ccc(C2=Nc3ccccc3Oc3ccccc32)nc1 [(E)-6-(dibenzo[b,f][1,4]oxazepin-11-yl)-N-hydroxynicotinamide]	0.1 to 1
O=C(NO)c1ccc(-c2ccc3c(c2)C(N2CCOCC2)=Nc2ccccc2O3)cc1 [(E)-N-hydroxy-4-(11-morpholinodibenzo[b,f][1,4]oxazepin-2-yl)benzamide]	< 0.05
O=C(NO)c1cccc(C2=Nc3ccccc3Oc3ccccc32)c1 [(Z)-3-(dibenzo[b,f][1,4]oxazepin-11-yl)-N-hydroxybenzamide]	0.1 to 1
O=C(NO)c1ccc(C2=Nc3ccccc3Oc3cccc(F)c32)cc1 [(Z)-4-(1-fluorodibenzo[b,f][1,4]oxazepin-11-yl)-N-hydroxybenzamide]	< 0.05
O=C(NO)c1ccc(C2=Nc3ccccc3Oc3ccc(Cl)cc32)cc1 [(Z)-4-(2-chlorodibenzo[b,f][1,4]oxazepin-11-yl)-N-hydroxybenzamide]	< 0.05
COc1cc(F)cc2c1Oc1ccccc1N=C2c1ccc(C(=O)NO)cc1 [(Z)-4-(2-fluoro-4-methoxydibenzo[b,f][1,4]oxazepin-11-yl)-N-hydroxybenzamide]	< 0.05
O=C(NO)c1ccc(C2=Nc3ccccc3Oc3ccc(F)cc32)cc1 [(Z)-4-(2-fluorodibenzo[b,f][1,4]oxazepin-11-yl)-N-hydroxybenzamide]	< 0.05
O=C(NO)c1ccc(C2=Nc3ccccc3Oc3cc(F)ccc32)cc1 [(Z)-4-(3-fluorodibenzo[b,f][1,4]oxazepin-11-yl)-N-hydroxybenzamide]	0.1 to 1
O=C(NO)c1ccc(C2=Nc3ccccc3Oc3c(F)cccc32)cc1 [(Z)-4-(4-fluorodibenzo[b,f][1,4]oxazepin-11-yl)-N-hydroxybenzamide]	0.1 to 1
O=C(NO)c1ccc(C2=Nc3ccccc3N(C3CC3)c3ccc(F)cc32)cc1 [(Z)-4-(5-cyclopropyl-2-fluoro-5H-dibenzo[b,e][1,4]diazepin-11-yl)-N-hydroxybenzamide]	0.05 to 0.1
CN(O)C(=O)c1ccc(C2=Nc3ccccc3N(C3CC3)c3ccccc32)cc1 [(Z)-4-(5-cyclopropyl-5H-dibenzo[b,e][1,4]diazepin-11-yl)-N-hydroxy-N-methylbenzamide]	1 to 10
O=C(NO)c1ccc(C2=Nc3ccccc3N(C3CC3)c3ccccc32)cc1 [(Z)-4-(5-cyclopropyl-5H-dibenzo[b,e][1,4]diazepin-11-yl)-N-hydroxybenzamide]	0.1 to 1
CCN1c2ccccc2N=C(c2ccc(C(=O)NO)cc2)c2ccccc21 [(Z)-4-(5-ethyl-5H-dibenzo[b,e][1,4]diazepin-11-yl)-N-hydroxybenzamide]	0.05 to 0.1
O=C(NO)c1ccc(C2=Nc3ccccc3Cn3cccc32)cc1 [(Z)-4-(5H-benzo[e]pyrrolo[1,2-a][1,4]diazepin-11-yl)-N-hydroxybenzamide]	< 0.05
O=C(NO)c1ccc(C2=Nc3ccccc3Nc3ccccc32)cc1 [(Z)-4-(5H-dibenzo[b,e][1,4]diazepin-11-yl)-N-hydroxybenzamide]	0.1 to 1

Further lines, results first:

IC50 [µM]	SMILES
0.05 to 0.1	O=C(NO)c1ccc(C2=Nc3cccc(F)c3Oc3ccccc32)cc1 [(Z)-4-(6-fluorodibenzo[b,f][1,4]oxazepin-11-yl)-N-hydroxybenzamide]
0.1 to 1	O=C(NO)c1ccc(C2=Nc3ccc(Cl)cc3Oc3ccccc32)cc1 [(Z)-4-(7-chlorodibenzo[b,f][1,4]oxazepin-11-yl)-N-hydroxybenzamide]
< 0.05	N#Cc1ccc2c(c1)Oc1ccccc1C(c1ccc(C(=O)NO)cc1)=N2 [(Z)-4-(7-cyanodibenzo[b,f][1,4]oxazepin-11-yl)-N-hydroxybenzamide]
0.05 to 0.1	O=C(NO)c1ccc(C2=Nc3cc(Cl)ccc3Nc3ccccc32)cc1 [(Z)-4-(8-chloro-5H-dibenzo[b,e][1,4]diazepin-11-yl)-N-hydroxybenzamide]
0.1 to 1	O=C(NO)c1ccc(C2=Nc3cc(Cl)ccc3Oc3ccccc32)cc1 [(Z)-4-(8-chlorodibenzo[b,f][1,4]oxazepin-11-yl)-N-hydroxybenzamide]
0.05 to 0.1	N#Cc1ccc2c(c1)N=C(c1ccc(C(=O)NO)cc1)c1ccccc1O2 [(Z)-4-(8-cyanodibenzo[b,f][1,4]oxazepin-11-yl)-N-hydroxybenzamide]
0.05 to 0.1	O=C(NO)c1ccc(C2=Nc3c(F)cccc3Oc3ccccc32)cc1 [(Z)-4-(9-fluorodibenzo[b,f][1,4]oxazepin-11-yl)-N-hydroxybenzamide]
1 to 10	O=C(NO)c1ccc(C2=Nc3ccccc3N(CC3CC3)c3ncccc32)cc1 [(Z)-4-(11-(cyclopropylmethyl)-11H-benzo[b]pyrido[2,3-e][1,4]diazepin-5-yl)-N-hydroxybenzamide]
< 0.05	O=C(NO)c1ccc(C2=Nc3ccccc3N(C3CC3)c3ncccc32)cc1 [(Z)-4-(11-cyclopropyl-11H-benzo[b]pyrido[2,3-e][1,4]diazepin-5-yl)-N-hydroxybenzamide]
< 0.05	CCN1c2ccccc2N=C(c2ccc(C(=O)NO)cc2)c2cccnc21 [(Z)-4-(11-ethyl-11H-benzo[b]pyrido[2,3-e][1,4]diazepin-5-yl)-N-hydroxybenzamide]
0.05 to 0.1	O=C(NO)c1ccc(C2=Nc3ccccc3Oc3ncccc32)cc1 [(Z)-4-(benzo[b]pyrido[3,2-f][1,4]oxazepin-5-yl)-N-hydroxybenzamide]
0.1 to 1	O=C(NO)c1ccc(C2=Nc3ccccc3Oc3cnccc32)cc1 [(Z)-4-(benzo[b]pyrido[4,3-f][1,4]oxazepin-5-yl)-N-hydroxybenzamide]
< 0.05	O=C(NO)c1ccc(C2=Nc3cccnc3Oc3ccccc32)cc1 [(Z)-4-(benzo[f]pyrido[2,3-b][1,4]oxazepin-6-yl)-N-hydroxybenzamide]
0.1 to 1	O=C(NO)c1ccc(C2=Nc3ccsc3Oc3ccccc32)cc1 [(Z)-4-(benzo[f]thieno[2,3-b][1,4]oxazepin-5-yl)-N-hydroxybenzamide]
0.1 to 1	O=C(NO)c1ccc(C2=Nc3ccccc3Oc3ccccc32)cc1F [(Z)-4-(dibenzo[b,f][1,4]oxazepin-11-yl)-2-fluoro-N-hydroxybenzamide]
< 0.05	O=C(NO)c1ccc(C2=Nc3ccccc3Oc3ccccc32)cc1 [(Z)-4-(dibenzo[b,f][1,4]oxazepin-11-yl)-N-hydroxybenzamide]
